Tested on: Cotton (Gossypium hirsutum) of the variety DP 1050 B2BRF
Assay: Field trial: percentage of open bolls in cotton after in-furrow application (earliness)
Format: in vivo
Details: application rate 841 g/ha, in furrow by spreading, visual inspection
Description: Cotton (Gossypium hirsutum) of the variety DP 1050 B2BRF was planted in a field trial in Brooks, Ga., United States in May 2013. Temik (comprising the active ingredient Aldicarb ([2-methyl-2-(methylthio) propionaldehyde O-(methylcarbamoyl)oxime]) and Fluopyram in combination with Imidacloprid (Velum® Total, Bayer CropScience) were applied in furrow at the same day. Temik was used for controlling insects in cotton and was provided as a Granule Release formulation with 15% (w/w) active ingredient and was applied at a rate of 841 g of active ingredient/ha by spreading. Fluopyram in combination with Imidacloprid (Velum® Total) was used as a Soluble Concentrate (SC) formulation with a concentration of 440 g/l active ingredient in total, thereof 180 g/l Fluopyram and 260 g/l Imidacloprid and these combinations were applied separately at three different rates of 321.5 g of total active ingredient/ha, 450 g of total active ingredient/ha, and 578.7 g of total active ingredient/ha by spraying. The percentage of open bolls was assessed by visual inspection at three times after application.

For `CNC(=O)ON=CC(C)(C)SC` [Aldicarb, 2-methyl-2-(methylthio) propionaldehyde O-(methylcarbamoyl)oxime], the “percentage of open bolls, 97 Days after Application BBCH 76” value (97 days after application, BBCH 76) was 12.5%, the “percentage of open bolls, 104 Days after Application BBCH 77” value (104 days after application, BBCH 77) was 17.5% and the “percentage of open bolls, 111 Days after Application BBCH 78” value (111 days after application, BBCH 78) was 30.0%.

From patent US20180332850A1, “METHOD FOR IMPROVING EARLINESS IN COTTON” (Robert Bosch GmbH, priority 2015, published 2018)
